9 molecules from PubChem BioAssay (NCI) can be followed below.

What all share (test): NCI tumour cell line growth inhibition, 48 h
The test system of assay [1] is M14 melanoma.
For assay [2], the system named is UACC-62 melanoma.
Assay [3] concerns MOLT-4 leukemia.
Assay [4] concerns RXF 393 renal.
The subject of assay [5] is SW-620 colon.
In assay [6] the test system is SNB-19 CNS.
In assay [7] the test system is SK-OV-3 ovarian.
Assay [8] has as its system OVCAR-5 ovarian.
For assay [9], the system named is COLO 205 colon.
The subject of assay [10] is T-47D breast.

Values joined by “and” are separate entries in the source; they are usually repeats but may differ in a detail not shown here. Equal entries are not always repeated.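 Protocol summary: plate cells (96-well), add compound at 5 concentrations, incubate 48 h, interpolate endpoints linearly. GI50 marks 50% less growth. TGI is the concentration that stops growth completely.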

`C/C=C(\C)CC/C=C/CO[Si](C)(C)C(C)(C)C`: the TGI in [1] is more than 100 µM; in assay [2] it was more than 100 µM; in [3], 81.3 µM; in assay [4] it was more than 100 µM; in assay [5], more than 100 µM; in assay [6], more than 100 µM. The TGI in assay [7], in assay [8], in assay [9] and in assay [10] was more than 100 µM in each case.
Take `COc1ccc(OC)c(C(=O)c2oc3ccc(Br)cc3c2N)c1`: the GI50 in assay [1] is 303 nM; in assay [2], 432 nM; in assay [3], 425 nM; in assay [4], 300 nM; in assay [5] it was 332 nM; in assay [6] it was 901 nM. The GI50 in assay [7] was 515 nM; in assay [8], 1560 nM; in assay [9], 406 nM; in assay [10], 452 nM. The TGI was 16.3 µM in [1]; 14.3 µM in [2]; 23.7 µM in assay [3]; 1.69 µM in assay [4]; more than 66.8 µM in assay [5]; more than 100 µM in [6]. Also, the TGI in assay [7] was 7.07 µM; in assay [8], more than 51.7 µM; in [9], 2.11 µM; in [10], more than 67.6 µM.
Regarding `Cc1ccc2[nH]c(C(=O)NN3C(=O)C(C)SC34CCCC(C)C4)c(-c3ccccc3)c2c1` (centres undefined), the GI50 is more than 100000 nM in assay [1]; 76800 nM in assay [2]; 19300 nM in [3]; 17100 nM in [4]; more than 100000 nM in assay [5]; more than 100000 nM in [6]. In addition, the GI50 in assay [7] was more than 100000 nM; in assay [8], more than 100000 nM; in [9], 94100 nM; in assay [10], more than 100000 nM. In addition, the TGI in assay [1] is more than 100 µM; in assay [2] it was more than 100 µM; in assay [3], more than 100 µM; in [4], 84.7 µM; in [5], more than 100 µM; in [6], more than 100 µM. The TGI in assay [7], in [8], in assay [9] and in assay [10] was more than 100 µM each time.
For the molecule `COc1cc2c(c(OC)c1OC)-c1c(cc3c(c1OC)OCO3)C1OC2C(C)C1C` (centres undefined) (tested in a mixture with another compound), the TGI in assay [1] is more than 100 µM; in [2], more than 100 µM; in assay [3], 70.4 µM; in [4] it was more than 100 µM; in assay [5], more than 100 µM; in assay [6], more than 100 µM. Moreover, the TGI is more than 100 µM in assay [7], more than 100 µM in [8], more than 100 µM in assay [9] and 80.2 µM in assay [10].
As for `Nc1nc(-c2cccc(Cl)c2)c(-c2ccc3ncccc3n2)s1`, the GI50 in [1], in [2], in [3], in [4], in assay [5] and in assay [6] was more than 25000 nM throughout. For the same molecule, the GI50 in assay [7] is more than 25000 nM; in assay [8], more than 25000 nM; in assay [9], more than 25000 nM; in assay [10] it was 5880 nM. For the same molecule, the TGI in [1], in assay [2], in assay [3], in assay [4], in [5] and in [6] was more than 25 µM throughout. For the same molecule, the TGI in assay [7], in assay [8], in [9] and in [10] was more than 25 µM throughout.
Turning to `CC(C)(C)c1cc(NC(=O)Cc2ccc(-c3cnc4cc(-c5cnn(CCN6CCOCC6)c5)ccc4n3)cc2)no1`, the GI50 in assay [1] was 202 nM and 370 nM and 41.9 nM; in assay [2], 260 nM and 364 nM and 55.2 nM; in [3] it was 260 nM and 429 nM and 115 nM; in assay [4], 179 nM and 274 nM and 39.5 nM; in assay [5], 220 nM and 414 nM and 87.8 nM; in [6] it was 2470 nM and 2260 nM and 279 nM. Besides, the GI50 was 369 nM in assay [7]; 836 nM and 93.1 nM in assay [9]; 853 nM and 822 nM and 107 nM in assay [10]. Moreover, the TGI was 50 µM and > 100 µM and > 3 µM in assay [1]; 50 µM and > 100 µM and > 3 µM in assay [2]; 50 µM and > 100 µM and > 3 µM in [3]; 1.93 µM and 1.45 µM in assay [4]; 9.2 µM and 67.1 µM and > 1.25 µM in assay [5]; 50 µM and > 100 µM and > 3 µM in [6]. For the same molecule, the TGI in [7] is 2.66 µM; in assay [8], 50 µM and > 100 µM and > 3 µM; in [9], 50 µM and > 3 µM; in assay [10], 50 µM and > 100 µM and > 3 µM.
As to `Nc1ncn(C2CC(O)C(CO)O2)c(=O)n1` (centres undefined), the TGI in [1] was more than 375 µM; in assay [2], 265 µM; in assay [3], more than 375 µM; in [4], 350 µM; in assay [5], 373 µM; in assay [6] it was more than 349 µM. Besides, the TGI in assay [7] was 182 µM; in assay [8] it was more than 375 µM; in [9], more than 298 µM; in assay [10], more than 299 µM.
As for `Cc1ccc(C(=O)Nc2ccc(CN3CCN(C)CC3)c(C(F)(F)F)c2)cc1C#Cc1cnc(N)c2ccccc12`, the GI50 in [1] is 134 nM; in assay [2] it was 565 nM; in assay [3], 224 nM; in assay [4] it was 285 nM; in [5], 410 nM; in assay [6] it was 769 nM. Also, the GI50 in assay [7] was 684 nM; in assay [8], 609 nM; in assay [9] it was 655 nM; in assay [10], 861 nM. For the same molecule, the TGI is 0.701 µM in [1]; 1.25 µM in [2]; 1.28 µM in [3]; 1.06 µM in assay [4]; 1.14 µM in assay [5]; 1.47 µM in assay [6]. The TGI in [7] amounted to 7.9 µM; in assay [8], 1.5 µM; in assay [9], 1.62 µM; in assay [10], 2.3 µM.
With `CCC(=O)c1c(C(F)(F)F)n([O-])c2ccc(C)cc2[n+]1=O`, the GI50 in assay [1] is 15300 nM; in assay [2], 7700 nM; in assay [3], 14100 nM; in assay [4] it was 23400 nM; in assay [5] it was 11700 nM; in assay [6], 15200 nM. Further, the GI50 was 8450 nM in assay [7], 3430 nM in [8], 5240 nM in assay [9] and 6510 nM in [10]. Besides, the TGI was more than 50 µM in assay [1]; 28.9 µM in assay [2]; more than 50 µM in assay [3]; more than 50 µM in assay [4]; more than 50 µM in assay [5]; more than 50 µM in [6]. Further, the TGI in assay [7] amounted to 49.3 µM; in [8], 41.6 µM; in assay [9], 19.6 µM; in assay [10], 26.8 µM.
